In brackets after ≈: the same amount, converted by molar mass. Where two headings read alike, the source gives them in different places.
Legend:
Pneumocystis carinii = assay: In vitro ATP content of Pneumocystis (luciferin-luciferase assay); details: for IC50: Pneumocystis carinii, read-out: IC50 (reduction in ATP)
Aspergillus fumigatus [1] = assay: Aspergillus fumigatus mycelia growth dose-response (MIC by linear regression); type: cell-based; details: for MIC: Aspergillus fumigatus, FIG. 2A dose-response, linear regression
Fusarium sp. = assay: MIC (Table 5); type: cell-based; details: for MIC / MIC50: Fusarium; for MIC: read-out: MIC 100%
Coccidioides sp. = assay: microbe, parasite or virus in culture; type: cell-based
Trichophyton rubrum = Trichophyton rubrum mycelia growth dose-response (MIC by linear regression); type: cell-based; details: for MIC: Trichophyton rubrum, FIG. 3 dose-response, linear regression
C. glabrata = assay: MIC against Candida species (Table 4); details: for MIC50 / MIC: Nakaseomyces glabratus; for MIC: read-out: MIC 100%
Blastomyces dermatitidis = assay: MIC, macrodilution method (Table 1); type: cell-based; details: 96 hours
Aspergillus fumigatus [2] = assay: Recovery of Aspergillus fumigatus mycelia growth after removal of antifungal drugs (MTT); type: cell-based; details: treated 12 hours, drug removed, 24 hours more
Fusarium oxysporum = assay: MIC, CLSI M38-A2 broth dilution (Table 1); type: cell-based
Cryptococcus neoformans = assay: MIC against Cryptococcus neoformans (Table 4); details: for MIC50 / MIC: Cryptococcus neoformans; for MIC: read-out: MIC 100%
Rhizopus oryzae = assay: MIC, CLSI M38-A2 broth dilution (Table 1); type: cell-based
Fusarium solani = assay: MIC, CLSI M38-A2 broth dilution (Table 1); type: cell-based; details: isolate FS1, 48 hours
Scedosporium apiospermum = assay: MIC, CLSI M38-A2 broth dilution (Table 1); type: cell-based
[3] = read-out: MIC, concentration resulting in 50% inhibition of mycelia growth
[4] = read-out: MIC, concentration resulting in 90% inhibition of mycelia growth

SMILES: NCC(=O)Nc1ccc(-n2nc(C(F)(F)F)cc2-c2ccc3c(ccc4ccccc43)c2)cc1 [AR-12, 2-amino-N-(4-(5-(phenanthren-2-yl)-3-(trifluoromethyl)-1H-pyrazol-1-yl)phenyl)acetamide]
- IC50 (Pneumocystis carinii; 24 h): 41.3 µg/mL (≈ 89.7 µM)
- IC50 (Pneumocystis carinii; 48 h): 18.3 µg/mL (≈ 39.8 µM)
- IC50 (Pneumocystis carinii; 72 h): 4.82 µg/mL (≈ 10.5 µM)
- Pm % Reduction in ATP/Vehicle Control (Pneumocystis carinii; Table 2, 1 μg/ml, 24 hours): 0%
- Pm % Reduction in ATP/Vehicle Control (Pneumocystis carinii; Table 2, 1 μg/ml, 48 hours): 1.76%
- Pm % Reduction in ATP/Vehicle Control (Pneumocystis carinii; Table 2, 1 μg/ml, 72 hours): 0.49%
- Pm % Reduction in ATP/Vehicle Control (Pneumocystis carinii; Table 2, 10 μg/ml, 24 hours): 0%
- Pm % Reduction in ATP/Vehicle Control (Pneumocystis carinii; Table 2, 10 μg/ml, 48 hours): 16.68%
- Pm % Reduction in ATP/Vehicle Control (Pneumocystis carinii; Table 2, 10 μg/ml, 72 hours): 59.81%
- Pm % Reduction in ATP/Vehicle Control (Pneumocystis carinii; Table 2, 100 μg/ml, 24 hours): 97.31%
- Pm % Reduction in ATP/Vehicle Control (Pneumocystis carinii; Table 2, 100 μg/ml, 48 hours): 97.2%
- Pm % Reduction in ATP/Vehicle Control (Pneumocystis carinii; Table 2, 100 μg/ml, 72 hours): 99.04%
- MIC (Aspergillus fumigatus [1]; [3]): 3.1 µM (≈ 1.43 µg/mL)
- MIC (Aspergillus fumigatus [1]; [4]): 8.6 µM (≈ 3.96 µg/mL)
- concentration that effectively prevents growth (Aspergillus fumigatus [1]; stated for all three fungi): 8 to 40 µM
- MIC (Fusarium sp.; 24 h, isolate F-1, 24 hrs): 2 µg/mL (≈ 4.34 µM)
- MIC (Fusarium sp.; 24 h, isolate F-2, 24 hrs): 2 µg/mL (≈ 4.34 µM)
- MIC (Fusarium sp.; 24 h, isolate F-3, 24 hrs): 2 µg/mL (≈ 4.34 µM)
- MIC50 (Fusarium sp.; isolate F-1, 48/72 hrs): 4 µg/mL (≈ 8.69 µM)
- MIC (Fusarium sp.; isolate F-1, 48/72 hrs): 4 µg/mL (≈ 8.69 µM)
- MIC (Fusarium sp.; isolate F-2, 48/72 hrs): 4 µg/mL (≈ 8.69 µM)
- MIC (Fusarium sp.; isolate F-3, 48/72 hrs): 4 µg/mL (≈ 8.69 µM)
- MIC50 (Fusarium sp.; isolate F-1, 24 hrs): 2 µg/mL (≈ 4.34 µM)
- MIC 50% (Fusarium sp.; isolate F-2, 48/72 hrs): 4 µg/mL (≈ 8.69 µM)
- MIC 50% (Fusarium sp.; isolate F-2, 24 hrs): 2 µg/mL (≈ 4.34 µM)
- MIC 50% (Fusarium sp.; isolate F-3, 48/72 hrs): 4 µg/mL (≈ 8.69 µM)
- MIC 50% (Fusarium sp.; isolate F-3, 24 hrs): 2 µg/mL (≈ 4.34 µM)
- MIC50 (Coccidioides sp.; Coccidioides): 2 µg/mL (≈ 4.34 µM)
- MIC (Coccidioides sp.; Coccidioides, read-out: MIC 100%, isolate COCCI-1, 72/192 hrs): 4 µg/mL (≈ 8.69 µM)
- MIC (Coccidioides sp.; Coccidioides, read-out: MIC 100%, isolate COCCI-2, 72/192 hrs): 8 µg/mL (≈ 17.4 µM)
- MIC (Coccidioides sp.; Coccidioides, read-out: MIC 100%, isolate COCCI-3, 72/192 hrs): 4 µg/mL (≈ 8.69 µM)
- MIC 50% (Coccidioides sp.; isolate COCCI-1, 72/192 hrs): 2 µg/mL (≈ 4.34 µM)
- MIC 50% (Coccidioides sp.; isolate COCCI-3, 72/192 hrs): 2 µg/mL (≈ 4.34 µM)
- MIC (Trichophyton rubrum; [3]): 4.5 µM (≈ 2.07 µg/mL)
- MIC (Trichophyton rubrum; [4]): 11.3 µM (≈ 5.2 µg/mL)
- concentration that effectively prevents growth (Trichophyton rubrum; stated for all three fungi): 8 to 40 µM
- MIC50 (C. glabrata; 24 h, isolate CG-1, 24 hrs): 4 µg/mL (≈ 8.69 µM)
- MIC50 (C. glabrata; 24 h, isolate CG-2, 24 hrs): 4 µg/mL (≈ 8.69 µM)
- MIC50 (C. glabrata; 24 h, isolate CG-3, 24 hrs): 4 µg/mL (≈ 8.69 µM)
- MIC50 (C. glabrata; 24 h, isolate CG-4, 24 hrs): 4 µg/mL (≈ 8.69 µM)
- MIC50 (C. glabrata; 24 h, isolate CG-5, 24 hrs): 4 µg/mL (≈ 8.69 µM)
- MIC50 (C. glabrata; 24 h, isolate CG-6, 24 hrs): 4 µg/mL (≈ 8.69 µM)
- MIC50 (C. glabrata; 24 h, isolate CG-7, 24 hrs): 2 µg/mL (≈ 4.34 µM)
- MIC50 (C. glabrata; 24 h, isolate CG-8, 24 hrs): 4 µg/mL (≈ 8.69 µM)
- MIC50 (C. glabrata; 24 h, isolate CG-9, 24 hrs): 2 µg/mL (≈ 4.34 µM)
- MIC50 (C. glabrata; 24 h, isolate CG-10, 24 hrs): 2 µg/mL (≈ 4.34 µM)
- MIC (C. glabrata; 24 h): 4 µg/mL (≈ 8.69 µM)
- MIC50 (C. glabrata; 48 h, isolate CG-1, 48 hrs): 4 µg/mL (≈ 8.69 µM)
- MIC50 (C. glabrata; 48 h, isolate CG-2, 48 hrs): 4 µg/mL (≈ 8.69 µM)
- MIC50 (C. glabrata; 48 h, isolate CG-3, 48 hrs): 4 µg/mL (≈ 8.69 µM)
- MIC50 (C. glabrata; 48 h, isolate CG-4, 48 hrs): 4 µg/mL (≈ 8.69 µM)
- MIC50 (C. glabrata; 48 h, isolate CG-5, 48 hrs): 4 µg/mL (≈ 8.69 µM)
- MIC50 (C. glabrata; 48 h, isolate CG-6, 48 hrs): 4 µg/mL (≈ 8.69 µM)
- MIC50 (C. glabrata; 48 h, isolate CG-7, 48 hrs): 4 µg/mL (≈ 8.69 µM)
- MIC50 (C. glabrata; 48 h, isolate CG-8, 48 hrs): 4 µg/mL (≈ 8.69 µM)
- MIC50 (C. glabrata; 48 h, isolate CG-9, 48 hrs): 4 µg/mL (≈ 8.69 µM)
- MIC50 (C. glabrata; 48 h, isolate CG-10, 48 hrs): 4 µg/mL (≈ 8.69 µM)
- MIC (C. glabrata; 48 h): 4 µg/mL (≈ 8.69 µM)
- MIC 100% (C. glabrata; isolate CG-1, 24 hrs): 4 µg/mL (≈ 8.69 µM)
- MIC 100% (C. glabrata; isolate CG-1, 48 hrs): 4 µg/mL (≈ 8.69 µM)
- MIC 100% (C. glabrata; isolate CG-2, 24 hrs): 4 µg/mL (≈ 8.69 µM)
- MIC 100% (C. glabrata; isolate CG-2, 48 hrs): 4 µg/mL (≈ 8.69 µM)
- MIC 100% (C. glabrata; isolate CG-4, 24 hrs): 4 µg/mL (≈ 8.69 µM)
- MIC 100% (C. glabrata; isolate CG-4, 48 hrs): 4 µg/mL (≈ 8.69 µM)
- MIC 100% (C. glabrata; isolate CG-5, 24 hrs): 4 µg/mL (≈ 8.69 µM)
- MIC 100% (C. glabrata; isolate CG-5, 48 hrs): 4 µg/mL (≈ 8.69 µM)
- MIC 100% (C. glabrata; isolate CG-6, 24 hrs): 4 µg/mL (≈ 8.69 µM)
- MIC 100% (C. glabrata; isolate CG-6, 48 hrs): 4 µg/mL (≈ 8.69 µM)
- MIC 100% (C. glabrata; isolate CG-7, 24 hrs): 4 µg/mL (≈ 8.69 µM)
- MIC 100% (C. glabrata; isolate CG-7, 48 hrs): 4 µg/mL (≈ 8.69 µM)
- MIC 100% (C. glabrata; isolate CG-8, 24 hrs): 4 µg/mL (≈ 8.69 µM)
- MIC 100% (C. glabrata; isolate CG-8, 48 hrs): 4 µg/mL (≈ 8.69 µM)
- MIC 100% (C. glabrata; isolate CG-9, 24 hrs): 4 µg/mL (≈ 8.69 µM)
- MIC 100% (C. glabrata; isolate CG-9, 48 hrs): 4 µg/mL (≈ 8.69 µM)
- MIC 100% (C. glabrata; isolate CG-10, 24 hrs): 4 µg/mL (≈ 8.69 µM)
- MIC 100% (C. glabrata; isolate CG-10, 48 hrs): 4 µg/mL (≈ 8.69 µM)
- MIC 50% (Blastomyces dermatitidis; isolate BD1, macrodilution): 2 gg/m1
- MIC 100% (Blastomyces dermatitidis; isolate BD1, macrodilution): 4 gg/m1
- MIC 50% (Blastomyces dermatitidis; isolate BD2, macrodilution): 1 gg/m1
- MIC 100% (Blastomyces dermatitidis; isolate BD2, macrodilution): 2 gg/m1
- MIC 50% (Blastomyces dermatitidis; isolate BD3, macrodilution): 1 gg/m1
- MIC 100% (Blastomyces dermatitidis; isolate BD3, macrodilution): 1 gg/m1
- recovery of mycelia growth after removal of drug (Aspergillus fumigatus [2]): no viable Aspergillus fumigatus mycelia
- MIC 50% (Fusarium oxysporum; isolate FO1, 48 hours): 4 gg/m1
- MIC 100% (Fusarium oxysporum; isolate FO1, 48 hours): 4 gg/m1
- MIC 50% (Fusarium oxysporum; isolate FO2, 48 hours): 4 gg/m1
- MIC 100% (Fusarium oxysporum; isolate FO2, 48 hours): 4 gg/m1
- MIC50 (Cryptococcus neoformans; 48 h, isolate CN-1, 48 hrs): 2 µg/mL (≈ 4.34 µM)
- MIC50 (Cryptococcus neoformans; 48 h, isolate CN-2, 48 hrs): 4 µg/mL (≈ 8.69 µM)
- MIC50 (Cryptococcus neoformans; 48 h, isolate CN-3, 48 hrs): 4 µg/mL (≈ 8.69 µM)
- MIC (Cryptococcus neoformans; 48 h): 4 µg/mL (≈ 8.69 µM)
- MIC50 (Cryptococcus neoformans; 72 h, isolate CN-1, 72 hrs): 4 µg/mL (≈ 8.69 µM)
- MIC50 (Cryptococcus neoformans; 72 h, isolate CN-2, 72 hrs): 4 µg/mL (≈ 8.69 µM)
- MIC50 (Cryptococcus neoformans; 72 h, isolate CN-3, 72 hrs): 4 µg/mL (≈ 8.69 µM)
- MIC (Cryptococcus neoformans; 72 h): 4 µg/mL (≈ 8.69 µM)
- MIC 100% (Cryptococcus neoformans; isolate CN-2, 48 hrs): 4 µg/mL (≈ 8.69 µM)
- MIC 100% (Cryptococcus neoformans; isolate CN-2, 72 hrs): 4 µg/mL (≈ 8.69 µM)
- MIC 100% (Cryptococcus neoformans; isolate CN-3, 48 hrs): 4 µg/mL (≈ 8.69 µM)
- MIC 100% (Cryptococcus neoformans; isolate CN-3, 72 hrs): 4 µg/mL (≈ 8.69 µM)
- MIC 50% (Rhizopus oryzae; isolate RO1, 24 hours): 4 gg/m1
- MIC 100% (Rhizopus oryzae; isolate RO1, 24 hours): 4 gg/m1
- MIC 50% (Rhizopus oryzae; isolate RO2, 24 hours): 4 gg/m1
- MIC 100% (Rhizopus oryzae; isolate RO2, 24 hours): 4 gg/m1
- MIC 50% (Rhizopus oryzae; isolate RO3, 24 hours): 4 gg/m1
- MIC 100% (Rhizopus oryzae; isolate RO3, 24 hours): 4 gg/m1
- MIC 50% (Fusarium solani): 4 gg/m1
- MIC 100% (Fusarium solani): 4 gg/m1
- MIC 50% (Scedosporium apiospermum; isolate SA1, 72 hours): 2 gg/m1
- MIC 100% (Scedosporium apiospermum; isolate SA1, 72 hours): 2 gg/m1
- MIC 50% (Scedosporium apiospermum; isolate SA2, 72 hours): 1 gg/m1
- MIC 100% (Scedosporium apiospermum; isolate SA2, 72 hours): 2 gg/m1
